Reference: PubChem BioAssay AID1195 (EPA DSSTox, 2008)
Starred links: 1 amine or outer side, 2 acyl side, 3 side chain; linkers in the order of their positions; H or OH if unused. Positions of bridges follow the written chain, without caps; N, C: chain ends. Non-standard residues stand in square brackets, D forms with d. Residues, ends and D or L forms follow the SMILES beside them. *: point of attachment. X1 = NC1=N[C@@H]([C@H](N[*:1])C(=O)[*:2])C[C@H](O)N1; ΔAla(Z-3-ureido) = NC(=O)N/C=C(\N)C(=O)O; β3hOrn = NCCC[C@H](N)CC(=O)*; Dap = NC[C@H](N)C(=O)O

Tested on: human maximum recommended daily dose, FDA database
Test: DSSTox (FDAMDD) FDA Maximum (Recommended) Daily Dose Database
Details: hits give low values
In short: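 MRDD values come from clinical trials with daily oral dosing, usually for 3–12 months, for the average adult, in mg/day converted to mg/kg-bw/day assuming 60 kg. Antineoplastic mg/m2 doses are divided by 37. Activity score maps log10(1/MRDD mmol) onto 1–100.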

[1] = TherapeuticCategory: antibacterial
[2] = TherapeuticCategory: cardiotonic
[3] = TherapeuticCategory: diagnostic aid
[4] = TherapeuticCategory: sedative, hypnotic
[5] = TherapeuticCategory: anticholinergic

`CO[C@@H]1[C@@H](O[C@@H]2O[C@H](C)[C@@H](O[C@H]3C[C@@](C)(O)[C@@H](O)[C@H](C)O3)[C@H](N(C)C)[C@H]2O)[C@@H](CC=O)C[C@@H](C)[C@@H](O[C@@H]2CC[C@H](N(C)C)[C@@H](C)O2)/C=C/C=C/C[C@@H](C)OC(=O)C[C@H]1O` was tested, and the maximum recommended daily dose (mmol/kg-bw/day) [1] was 0.0791.

Work on `CCCOC(=O)c1ccc(O)cc1` yielded a maximum recommended daily dose (mmol/kg-bw/day) (TherapeuticCategory: pharmaceutic aid) of 0.0555.

In the case of `CC(=O)O[C@H]1C[C@H](O[C@H]2[C@@H](O)C[C@H](O[C@H]3[C@@H](O)C[C@H](OC4CC[C@@]5(C)C(CC[C@@H]6[C@@H]5C[C@@H](O)[C@]5(C)[C@@H](C7=CC(=O)OC7)[C@@H](O)C[C@]65O)C4)O[C@@H]3C)O[C@@H]2C)O[C@H](C)[C@H]1O[C@@H]1O[C@H](CO)[C@@H](O)[C@H](O)[C@H]1O` (stereo not given in full), the maximum recommended daily dose (mmol/kg-bw/day) [2] is reported as 3.33e-05.

Compound `CCN(CC)CCOC(=O)c1ccc(N)cc1Cl` has a maximum recommended daily dose (mmol/kg-bw/day) (TherapeuticCategory: local anesthetic) of 0.0308.

`CCOC(=O)[C@]1(c2ccccc2)CCC=C[C@H]1N(C)C` showed a maximum recommended daily dose (mmol/kg-bw/day) (TherapeuticCategory: narcotic analgesic) of 0.0122.

In the case of `CCN(CC)CCSC(=O)C(c1ccccc1)c1ccccc1`, the maximum recommended daily dose (mmol/kg-bw/day) (TherapeuticCategory: anticholinergic, smooth muscle relaxant) is reported as 0.0153.

Work on `C[C@@H]1O[C@@H](O[C@@H]2C=C3CC[C@@H]4[C@H](CC[C@]5(C)[C@@H](c6ccc(=O)oc6)CC[C@]45O)[C@@]3(C)CC2)[C@H](O)[C@H](O)[C@H]1O` yielded a maximum recommended daily dose (mmol/kg-bw/day) [2] of 7.86e-05.

`CC(=O)Nc1nnc(S(N)(=O)=O)s1` was tested, and the maximum recommended daily dose (mmol/kg-bw/day) (TherapeuticCategory: carbonic anhydrase inhibitor, diuretic) was 0.0751.

With `COc1ccc2c(c1OC)CN1CCc3cc4c(cc3C1C2)OCO4` (stereo not given) the maximum recommended daily dose (mmol/kg-bw/day) (TherapeuticCategory: Ca channel blocker) was 0.0981.

`COc1c2occc2cc2ccc(=O)oc12` was tested, and the maximum recommended daily dose (mmol/kg-bw/day) (TherapeuticCategory: pigmentation agent) was 0.00278.

With `NCCC[C@H](N)CC(=O)N[C@H]1CNC(=O)[C@H]([C@H]2C[C@H](O)NC(N)=N2)NC(=O)/C(=C/NC(N)=O)NC(=O)[C@H](CO)NC(=O)[C@H](CO)NC1=O` (β3hOrn-[Dap]SS[ΔAla(Z-3-ureido)][X1]; lactam 1-C) the maximum recommended daily dose (mmol/kg-bw/day) [1] was 0.0973.

Work on `CN1C(=O)CC(C)(c2ccccc2)C1=O` (stereo not given) yielded a maximum recommended daily dose (mmol/kg-bw/day) (TherapeuticCategory: anticonvulsant) of 0.0984.

Compound `CC[N+]1(C)[C@@H]2CC(OC(=O)[C@H](CO)c3ccccc3)C[C@H]1[C@@H]1O[C@@H]12` (stereo not given in full) has a maximum recommended daily dose (mmol/kg-bw/day) (TherapeuticCategory: bronchodilator) of 2.43e-05.

`CO/N=C(\C(=O)N[C@@H]1C(=O)N2C(C(=O)O)=CCS[C@H]12)c1csc(N)n1` gave a maximum recommended daily dose (mmol/kg-bw/day) [1] of 0.261.

With `CC(=O)N(CC(C)C(=O)O)c1c(I)cc(I)c(N)c1I` (stereo not given) the maximum recommended daily dose (mmol/kg-bw/day) [3] was 0.122.

`COc1ccc(OC)c(C(O)CNC(=O)CN)c1` (stereo not given) was tested, and the maximum recommended daily dose (mmol/kg-bw/day) (TherapeuticCategory: adrenergic, antihypotensive) was 0.000983.

Work on `CC(=O)OCC(=O)[C@@]1(OC(=O)C(C)C)[C@@H](C)C[C@H]2[C@@H]3CCC4=CC(=O)C=C[C@]4(C)[C@@]3(F)[C@@H](O)C[C@@]21C` yielded a maximum recommended daily dose (mmol/kg-bw/day) (TherapeuticCategory: glucocorticoid) of 0.000297.

For `CN1[C@@H]2CCC[C@H]1CC(NC(=O)c1nn(C)c3ccccc13)C2` (stereo not given in full), the maximum recommended daily dose (mmol/kg-bw/day) (TherapeuticCategory: antiemetic) was 3.2e-05.

`CCN(CC)CCN1C(=O)CN=C(c2ccccc2F)c2cc(Cl)ccc21` was tested, and the maximum recommended daily dose (mmol/kg-bw/day) [4] was 0.00129.

`CCCN(CCC)S(=O)(=O)c1ccc(C(=O)O)cc1` showed a maximum recommended daily dose (mmol/kg-bw/day) (TherapeuticCategory: uricosuric) of 0.0585.

With `C=C1CC[C@@]2(O)[C@H]3Cc4ccc(O)c5c4[C@@]2(CCN3CC2CC2)[C@H]1O5` the maximum recommended daily dose (mmol/kg-bw/day) (TherapeuticCategory: narcotic antagonist) was 0.00245.

`NCc1ccccc1CC(=O)N[C@@H]1C(=O)N2C(C(=O)O)=C(CSc3nnnn3CC(=O)O)CS[C@H]12` showed a maximum recommended daily dose (mmol/kg-bw/day) [1] of 0.0641.

Work on `CCOC(=O)[C@H](CCc1ccccc1)N[C@@H](C)C(=O)N1Cc2cc(OC)c(OC)cc2C[C@H]1C(=O)O` yielded a maximum recommended daily dose (mmol/kg-bw/day) (TherapeuticCategory: antihypertensive, ACE inhibitor) of 0.00167.

`COC1=C(C(=O)O)N2C(=O)[C@@H](NC(=O)[C@H](N)C3=CCC=CC3)[C@H]2SC1` was tested, and the maximum recommended daily dose (mmol/kg-bw/day) [1] was 0.0911.

`CCC(C)C(C)(COC(N)=O)COC(N)=O` (stereo not given) gave a maximum recommended daily dose (mmol/kg-bw/day) (TherapeuticCategory: antihypertensive) of 0.0861.

Work on `NCCCC(O)(P(=O)(O)O)P(=O)(O)O` yielded a maximum recommended daily dose (mmol/kg-bw/day) (TherapeuticCategory: antiosteoporotic) of 0.00268.

Compound `CCN(CC)CCOC(=O)C1(C2CCCCC2)CCCCC1` has a maximum recommended daily dose (mmol/kg-bw/day) [5] of 0.0043.

Compound `O=c1[nH]c(=O)n(C2CCCO2)cc1F` (stereo not given) (tested in a mixture with another compound) has a maximum recommended daily dose (mmol/kg-bw/day) (TherapeuticCategory: antineoplastic) of 0.0641.

Work on `CCN(CC)CCOC(=O)C(c1ccccc1)c1ccccc1` yielded a maximum recommended daily dose (mmol/kg-bw/day) [5] of 0.0241.

Work on `CCC(Br)(CC)C(=O)NC(N)=O` yielded a maximum recommended daily dose (mmol/kg-bw/day) [4] of 0.0704.

`Clc1ccccc1CN1CCc2sccc2C1` was tested, and the maximum recommended daily dose (mmol/kg-bw/day) (TherapeuticCategory: platelet aggregation inhibitor) was 0.0158.

`CC(=O)Nc1c(I)c(C(=O)N[C@H]2C(O)O[C@H](CO)[C@@H](O)[C@@H]2O)c(I)c(N(C)C(C)=O)c1I` (stereo not given in full) showed a maximum recommended daily dose (mmol/kg-bw/day) [3] of 0.132.

For `CCCC(CCC)C(=O)O`, the maximum recommended daily dose (mmol/kg-bw/day) (TherapeuticCategory: anticonvulsant, antiepileptic) was 0.289.

Compound `CCCN1C[C@H](CSC)C[C@@H]2c3cccc4[nH]cc(c34)C[C@H]21` has a maximum recommended daily dose (mmol/kg-bw/day) (TherapeuticCategory: antiparkinsonian, dopamine receptor agonist) of 0.000159.

`COc1ccc(CN(CCN(C)C)c2ccccn2)cc1` gave a maximum recommended daily dose (mmol/kg-bw/day) (TherapeuticCategory: antihistaminic) of 0.00438.
